# Source: publication PMC10104807, “Modulation of tau tubulin kinases (TTBK1 and TTBK2) impacts ciliogenesis” (Scientific Reports, 2023)
# What was measured:
# Test in all cases: DiscoverX scanMAX binding assay
# TAOK1 = biological target: T1, TAOK1 (Homo sapiens, UniProt Q7L7X3); conditions: 1 μM
# T1 construct: purchased Eurofins
# T1 sequence (Q7L7X3 1-1001): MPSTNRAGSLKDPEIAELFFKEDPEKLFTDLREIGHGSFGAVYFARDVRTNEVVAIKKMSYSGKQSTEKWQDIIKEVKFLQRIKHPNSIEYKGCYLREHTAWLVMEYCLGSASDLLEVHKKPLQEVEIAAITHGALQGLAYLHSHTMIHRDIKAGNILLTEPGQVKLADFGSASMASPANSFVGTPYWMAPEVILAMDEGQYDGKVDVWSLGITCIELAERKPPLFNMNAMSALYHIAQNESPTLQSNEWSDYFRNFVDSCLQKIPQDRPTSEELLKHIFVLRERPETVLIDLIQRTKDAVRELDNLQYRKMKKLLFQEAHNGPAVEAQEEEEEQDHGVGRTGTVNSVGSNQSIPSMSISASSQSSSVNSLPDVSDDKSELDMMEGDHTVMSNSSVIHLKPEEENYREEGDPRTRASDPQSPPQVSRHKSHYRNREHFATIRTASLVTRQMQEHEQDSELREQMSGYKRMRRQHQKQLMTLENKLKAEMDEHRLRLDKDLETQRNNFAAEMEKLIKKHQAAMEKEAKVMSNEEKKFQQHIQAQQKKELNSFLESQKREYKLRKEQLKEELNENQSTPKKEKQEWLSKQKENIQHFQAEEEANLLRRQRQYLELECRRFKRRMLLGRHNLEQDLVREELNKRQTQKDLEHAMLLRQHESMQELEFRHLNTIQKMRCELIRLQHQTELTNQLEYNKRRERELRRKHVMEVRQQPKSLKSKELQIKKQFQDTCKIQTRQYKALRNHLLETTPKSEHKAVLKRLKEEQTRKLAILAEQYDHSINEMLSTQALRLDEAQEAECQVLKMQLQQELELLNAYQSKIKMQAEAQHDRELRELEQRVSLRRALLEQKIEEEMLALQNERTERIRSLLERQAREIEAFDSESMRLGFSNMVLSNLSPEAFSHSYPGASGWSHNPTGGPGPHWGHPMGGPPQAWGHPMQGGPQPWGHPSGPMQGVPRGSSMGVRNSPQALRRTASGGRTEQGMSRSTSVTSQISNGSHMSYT
# Text: (§1) This panel includes 403 wild-type (WT) human kinases but not TTBK1/2. […] Substantial overlap between the MRC and DiscoverX scanMAX kinase panels allows the comparison of results for the same kinases in two different assay formats (enzymatic versus binding, respectively) at the same concentration. Selectivity results are included in two columns within Table 1. […] The rightmost column converts this selectivity score into the number of kinases with a PoC < 10 in the scanMAX panel.
# (§2) The Eurofins DiscoverX Corporation scanMAX assay platform was employed to assess the selectivity of specific analogs at a single concentration (1 µM). As described previously, this assay platform profiles a compound against 403 wild-type human kinases and delivers percent of control (PoC) values. These percent of control values are included in Table 1 and corresponding kinome tree diagrams as well as tables for each analog included in Fig. S1.
# PKNB(M.tuberculosis) = biological target: T2, PKNB(M.tuberculosis) (Mycobacterium tuberculosis, UniProt P9WI81); conditions: for PKNB(M.tuberculosis) % control at 1000nM: 1 μM
# T2 construct: purchased Eurofins (radiometric) / Eurofins DiscoverX scanMAX / Reaction Biology / SignalChem
# T2 sequence (P9WI81 whole entry): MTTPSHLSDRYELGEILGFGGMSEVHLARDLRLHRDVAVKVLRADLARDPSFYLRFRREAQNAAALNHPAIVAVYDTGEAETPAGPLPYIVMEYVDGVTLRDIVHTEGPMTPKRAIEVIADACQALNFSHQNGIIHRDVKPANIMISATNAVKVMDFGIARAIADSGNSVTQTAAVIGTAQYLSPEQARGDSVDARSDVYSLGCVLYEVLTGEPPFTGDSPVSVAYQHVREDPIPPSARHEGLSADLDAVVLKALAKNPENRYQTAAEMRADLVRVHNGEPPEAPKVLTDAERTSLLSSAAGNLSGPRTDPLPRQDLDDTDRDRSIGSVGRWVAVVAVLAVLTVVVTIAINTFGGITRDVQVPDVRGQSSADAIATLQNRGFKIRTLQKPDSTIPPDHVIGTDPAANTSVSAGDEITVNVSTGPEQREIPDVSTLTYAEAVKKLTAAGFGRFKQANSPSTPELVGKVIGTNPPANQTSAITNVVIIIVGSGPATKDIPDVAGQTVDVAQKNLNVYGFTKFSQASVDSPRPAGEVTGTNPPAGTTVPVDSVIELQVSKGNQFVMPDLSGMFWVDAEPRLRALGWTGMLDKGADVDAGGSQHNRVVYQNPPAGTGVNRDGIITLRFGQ
# Text: as §1, §2
# TAOK2 = biological target: T3, TAOK2 (Homo sapiens, UniProt Q9UL54); conditions: 1 μM
# T3 construct: purchased Eurofins
# T3 sequence (Q9UL54 1-1235): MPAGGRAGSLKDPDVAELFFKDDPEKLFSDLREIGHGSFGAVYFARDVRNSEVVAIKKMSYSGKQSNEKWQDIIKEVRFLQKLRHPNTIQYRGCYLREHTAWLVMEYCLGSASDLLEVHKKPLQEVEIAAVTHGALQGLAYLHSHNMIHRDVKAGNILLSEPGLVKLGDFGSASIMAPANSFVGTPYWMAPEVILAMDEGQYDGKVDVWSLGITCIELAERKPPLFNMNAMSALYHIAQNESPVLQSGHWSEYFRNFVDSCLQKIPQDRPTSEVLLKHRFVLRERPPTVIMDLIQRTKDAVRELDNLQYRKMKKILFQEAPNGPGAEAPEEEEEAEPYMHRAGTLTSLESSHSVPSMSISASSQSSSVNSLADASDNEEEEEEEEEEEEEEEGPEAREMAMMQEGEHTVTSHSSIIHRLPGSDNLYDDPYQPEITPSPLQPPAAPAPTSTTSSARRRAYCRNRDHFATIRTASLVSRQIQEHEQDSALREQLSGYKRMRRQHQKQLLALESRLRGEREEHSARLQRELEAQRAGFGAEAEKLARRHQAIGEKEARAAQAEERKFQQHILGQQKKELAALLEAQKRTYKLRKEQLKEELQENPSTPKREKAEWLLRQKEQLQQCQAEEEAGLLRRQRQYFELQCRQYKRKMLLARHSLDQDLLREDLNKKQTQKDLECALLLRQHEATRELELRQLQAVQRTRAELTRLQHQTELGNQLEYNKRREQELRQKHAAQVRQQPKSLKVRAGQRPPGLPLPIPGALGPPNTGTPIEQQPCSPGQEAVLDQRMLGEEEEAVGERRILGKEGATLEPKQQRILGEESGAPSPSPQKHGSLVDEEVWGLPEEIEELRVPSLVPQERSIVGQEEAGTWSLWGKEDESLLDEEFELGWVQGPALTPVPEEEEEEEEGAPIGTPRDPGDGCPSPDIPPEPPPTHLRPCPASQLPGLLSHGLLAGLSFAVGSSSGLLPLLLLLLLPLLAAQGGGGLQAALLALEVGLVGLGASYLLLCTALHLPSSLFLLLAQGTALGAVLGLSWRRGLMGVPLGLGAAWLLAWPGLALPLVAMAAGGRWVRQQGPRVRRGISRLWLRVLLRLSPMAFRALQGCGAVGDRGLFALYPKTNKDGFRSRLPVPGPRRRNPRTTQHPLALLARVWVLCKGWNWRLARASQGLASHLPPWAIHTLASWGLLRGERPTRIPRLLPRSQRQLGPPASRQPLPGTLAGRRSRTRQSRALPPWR
# Text: as §1, §2
SMILES,TAOK1 % control at 1000nM / DiscoverX PoC value (TAOK1) [% control],PKNB(M.tuberculosis) % control at 1000nM (PKNB(M.tuberculosis)) [% control],TAOK2 % control at 1000nM / DiscoverX PoC value (TAOK2) [% control],"kinase binding, % of control at 1 µM (PKNB(M.tuberculosis); read-out: PKNB(M.tuberculosis) % control at 1000nM) [%]"
CC(C)(O)C#Cc1ccc2[nH]cc(-c3ccnc(N)n3)c2c1 [Compound 3],2.1,0.9,1.3,–
CC(C)(O)C#Cc1ccc2[nH]c3c(c2c1)-c1nc(N)ncc1CC3 [Compound 1],1.2,1.7,1.5,–
"CC(C)(O)C#Cc1ccc2[nH]c3c(c2c1)-c1nc(N)ncc1CCC3 [AMG28, reference compound]",3.2,–,3.5,0.1
